Assay results from US7378446B2, “Compound having anti-HCV activity and process for producing the same” (Chugai Seiyaku Kabushiki Kaisha, priority 2003, dated 2008).
pIC50: −log10 of the molar value.

How the values were obtained:
in vitro = type: cell-based; settings: human; replicon cells, 3 days culture with compound, Cell Counting Kit 8, absorbance 450 nm; read-out: Cytotoxicity CC50
Method: (§1) A construct was prepared in which a luciferase gene derived from firefly was introduced as a reporter gene in HCV-RNA to assay the number of copies of HCV-RNA. The luciferase gene was introduced in the form of fusing with neomycin-resistance gene directly below the IRES (Internal Ribosome Entry Site) of the HCV gene in accordance with the method of Krieger, et al. (J. Virol. 75:4614). After synthesizing this RNA in vitro, it was introduced into Huh7 cell by electroporation and isolated as G418-resistant clone. Firefly luciferase HCV replicon cells (3-1) were suspended in Dulbecco's MEM (Gibco cat. no. 10569-010) containing 5% fetal bovine serum (Hyclone cat. no. SH30071.03), inoculated into the wells of a 96-well plate at 5000 cells/well and then cultured overnight at 37° C. and 5% CO2. Approximately 20 hours later, the diluted test compound was added at 10 μl per well followed by culturing for another 3 days. Two series of assay plates were prepared, and the assay was carried out using a white plate for one series and a clear plate for the other series. Following completion of culturing, the white plate was used for the Steady-Glo Luciferase Assay System (Promega cat. no. E2520). Namely, after adding 100 μl of reagent per well, mixing by a pipette 3 to 4 times and then allowing to stand for 5 minutes, luminescence was measured with the 1450 MicroBeta TRILUX (Wallac). Values obtained in the absence of cell addition were used as background values and subtracted from all values to calculate the IC50 (50% inhibitory concentration) of the drug based on a value of 0% inhibition for the value in the absence of addition of test compound.
The Cell Counting Kit 8 (Dojindo cat. no. CK04) was used to determine the cytotoxicity. Namely, 10 μl of Cell Counting Kit 8 were added to a clear plate and incubated for 30 to 60 minutes at 37° C. Absorbance at a wavelength of 450 nm and a control wavelength of 630 nm was measured with a 96-well plate reader. Values in the absence of cell addition were used as background values and subtracted from all values to calculate the CC50 (50% cell inhibitory concentration) of the drug based on a value of 0% inhibition for the value in the absence of addition of drug.

[1] = tested on: Firefly luciferase HCV replicon cells (3-1); test: Replicon assay (firefly luciferase HCV replicon); type: cell-based; settings: Hepatitis C virus, 72 h; Huh7-derived luciferase HCV replicon cells, 3 days culture with compound, Steady-Glo luminescence
Method: as §1

Row | Structure (SMILES) | CC50 (in vitro) | pIC50 [1]
1 | CCCCCCCC(=O)CCCCCC/C=C/[C@H](C(=O)N[C@@H](Cc1ccc(Oc2ccccc2)cc1)C(=O)O)[C@@](O)(CC(=O)O)C(=O)O [Compound 15] | > 5000 nM | 8.70
2 | CCCCCCCC(=O)CCCCCC/C=C/[C@H](C(=O)N[C@@H](Cc1ccc(C)cc1)C(=O)O)[C@@](O)(CC(=O)O)C(=O)O [Compound 16] | > 5000 nM | 8.00
3 | CCCCCCCC(=O)CCCCCC/C=C/[C@H](C(=O)N[C@@H](Cc1ccc(OCc2ccccc2)cc1)C(=O)O)[C@@](O)(CC(=O)O)C(=O)O [Compound 17] | > 5000 nM | > 9.00
4 | CC#CCOc1ccc(C[C@H](NC(=O)[C@@H](/C=C/CCCCCCC(=O)CCCCCCC)[C@@](O)(CC(=O)O)C(=O)O)C(=O)O)cc1 [Compound 18] | > 5000 nM | 9.00
5 | CCCCCCCC(=O)CCCCCC/C=C/[C@H](C(=O)N[C@@H](Cc1ccc(-c2ccccc2)cc1)C(=O)O)[C@@](O)(CC(=O)O)C(=O)O [Compound 19] | > 5000 nM | 8.70
6 | CCCCCCCC(=O)CCCCCC/C=C/[C@H](C(=O)N[C@@H](Cc1ccc2ccccc2c1)C(=O)O)[C@@](O)(CC(=O)O)C(=O)O [Compound 20] | > 5000 nM | 8.15
7 | CCCCCCCC(=O)CCCCCC/C=C/[C@H](C(=O)N[C@@H](Cc1ccc(OC2CCCCC2)cc1)C(=O)O)[C@@](O)(CC(=O)O)C(=O)O [Compound 21] | > 1000 nM | 8.40
8 | CCCCCCCC(=O)CCCCCC/C=C/[C@H](C(=O)N[C@@H](Cc1ccc(CCCC(C)C)cc1)C(=O)O)[C@@](O)(CC(=O)O)C(=O)O [Compound 22] | > 1000 nM | 7.85
9 | CCCCCCCC(=O)CCCCCC/C=C/[C@H](C(=O)N[C@@H](Cc1ccc(OC)c(OC)c1)C(=O)O)[C@@](O)(CC(=O)O)C(=O)O [Compound 23] | > 1000 nM | 7.77
10 | CCCCCCCC(=O)CCCCCC/C=C/[C@H](C(=O)N[C@@H](Cc1ccc(Oc2ccc(Cl)cc2)cc1)C(=O)O)[C@@](O)(CC(=O)O)C(=O)O [Compound 24] | > 1000 nM | 7.96
11 | CCCCCCCC(=O)CCCCCC/C=C/[C@H](C(=O)N[C@@H](Cc1ccc(Oc2ccc(F)cc2)cc1)C(=O)O)[C@@](O)(CC(=O)O)C(=O)O [Compound 25] | > 1000 nM | 8.05
12 | CCCCCCCC(=O)CCCCCC/C=C/[C@H](C(=O)N[C@@H](Cc1ccc(CCCCC)cc1)C(=O)O)[C@@](O)(CC(=O)O)C(=O)O [Compound 26] | > 1000 nM | 7.77
13 | CCCCCCCC(=O)CCCCCC/C=C/[C@H](C(=O)N[C@@H](Cc1ccc(-c2cccnc2)cc1)C(=O)O)[C@@](O)(CC(=O)O)C(=O)O [Compound 27] | > 1000 nM | 8.00
14 | CCCCCCCC(=O)CCCCCC/C=C/[C@H](C(=O)N[C@@H](Cc1ccc(-c2ccc(Cl)cc2)cc1)C(=O)O)[C@@](O)(CC(=O)O)C(=O)O [Compound 28] | > 1000 nM | 8.05
15 | CCCCCCCC(=O)CCCCCC/C=C/[C@H](C(=O)N[C@@H](Cc1ccc(-c2ccc(F)cc2)cc1)C(=O)O)[C@@](O)(CC(=O)O)C(=O)O [Compound 29] | > 1000 nM | 8.22
16 | CCCCCCCC(=O)CCCCCC/C=C/[C@H](C(=O)N[C@@H](Cc1ccc(-c2ccc(F)cc2F)cc1)C(=O)O)[C@@](O)(CC(=O)O)C(=O)O [Compound 30] | > 1000 nM | 8.10
17 | CCCCCCCC(=O)CCCCCC/C=C/[C@H](C(=O)N[C@@H](Cc1ccc(-c2ccsc2)cc1)C(=O)O)[C@@](O)(CC(=O)O)C(=O)O [Compound 31] | > 1000 nM | 7.92
18 | CCCCCCCC(=O)CCCCCC/C=C/[C@H](C(=O)NC(Cc1ccc(C(F)(F)F)cc1)C(=O)O)[C@@](O)(CC(=O)O)C(=O)O (some centres unmarked) [Compound 32] | > 1000 nM | 7.17
19 | CCCCCCCC(=O)CCCCCC/C=C/[C@H](C(=O)NC(Cc1ccc(C#N)cc1)C(=O)O)[C@@](O)(CC(=O)O)C(=O)O (some centres unmarked) [Compound 33] | > 1000 nM | 7.92

Row | Structure (SMILES) | CC50 (in vitro) | pIC50 [1]
20 | CCCCCCCC(=O)CCCCCC/C=C/[C@H](C(=O)NC(Cc1ccc(Cl)cc1)C(=O)O)[C@@](O)(CC(=O)O)C(=O)O (some centres unmarked) [Compound 34] | > 1000 nM | 7.26
21 | CCCCCCCC(=O)CCCCCC/C=C/[C@H](C(=O)NC(Cc1ccc([N+](=O)[O-])cc1)C(=O)O)[C@@](O)(CC(=O)O)C(=O)O (some centres unmarked) [Compound 35] | > 1000 nM | 7.10
22 | CCCCCCCC(=O)CCCCCC/C=C/[C@H](C(=O)N[C@@H](Cc1cccs1)C(=O)O)[C@@](O)(CC(=O)O)C(=O)O [Compound 36] | > 1000 nM | 6.30
23 | CCCCCCCC(=O)CCCCCC/C=C/[C@H](C(=O)N[C@@H](Cc1ccc(C(C)(C)C)cc1)C(=O)O)[C@@](O)(CC(=O)O)C(=O)O [Compound 37] | > 1000 nM | 6.68
24 | CCCCCCCC(=O)CCCCCC/C=C/[C@H](C(=O)N[C@@H](Cc1ccc(-c2cccc(Cl)c2)cc1)C(=O)O)[C@@](O)(CC(=O)O)C(=O)O [Compound 38] | > 1000 nM | 7.62
25 | CCCCCCCC(=O)CCCCCC/C=C/[C@H](C(=O)N[C@@H](Cc1ccc(Oc2cccc(Cl)c2)cc1)C(=O)O)[C@@](O)(CC(=O)O)C(=O)O [Compound 39] | > 1000 nM | 7.70
26 | CCCCCCCC(=O)CCCCCC/C=C/[C@H](C(=O)NC(Cc1ccc(OCCCC)cc1)C(=O)O)[C@@](O)(CC(=O)O)C(=O)O (some centres unmarked) [Compound 40] | > 1000 nM | 9.00
27 | CCCCCCCC(=O)CCCCCC/C=C/[C@H](C(=O)NC(Cc1ccc(OCCC)cc1)C(=O)O)[C@@](O)(CC(=O)O)C(=O)O (some centres unmarked) [Compound 41] | > 1000 nM | 8.70
28 | C=CCOc1ccc(CC(NC(=O)[C@@H](/C=C/CCCCCCC(=O)CCCCCCC)[C@@](O)(CC(=O)O)C(=O)O)C(=O)O)cc1 (some centres unmarked) [Compound 42] | > 1000 nM | 9.00
29 | CCCCCCCC(=O)CCCCCC/C=C/[C@H](C(=O)NC(Cc1ccc(OC)cc1)C(=O)O)[C@@](O)(CC(=O)O)C(=O)O (some centres unmarked) [Compound 43] | > 1000 nM | 8.52
30 | CCCCCC(=O)CCCCCCCC/C=C/[C@H](C(=O)N[C@@H](Cc1ccc(OCCC(C)C)cc1)C(=O)O)[C@@](O)(CC(=O)O)C(=O)O [Compound 44] | > 1000 nM | 9.00
31 | CCCCCCCCCC(=O)CCCC/C=C/[C@H](C(=O)N[C@@H](Cc1ccc(OCCC(C)C)cc1)C(=O)O)[C@@](O)(CC(=O)O)C(=O)O [Compound 45] | > 1000 nM | 8.30
32 | CCCC(=O)CCCCCC/C=C/[C@H](C(=O)N[C@@H](Cc1ccc(OCCC(C)C)cc1)C(=O)O)[C@@](O)(CC(=O)O)C(=O)O [Compound 46] | > 5000 nM | 6.10
33 | CC(C)CCOc1ccc(C[C@H](NC(=O)[C@@H](/C=C/CCCCCCC(=O)CCc2ccccc2)[C@@](O)(CC(=O)O)C(=O)O)C(=O)O)cc1 [Compound 47] | > 1000 nM | 6.60
34 | C=CCCCCCC(=O)CCCCCC/C=C/[C@H](C(=O)N[C@@H](Cc1ccc(OCCC(C)C)cc1)C(=O)O)[C@@](O)(CC(=O)O)C(=O)O [Compound 48] | > 1000 nM | 8.52
35 | CCCCCCCCC(=O)CCCCCC/C=C/[C@H](C(=O)N[C@@H](Cc1ccc(OCCC(C)C)cc1)C(=O)O)[C@@](O)(CC(=O)O)C(=O)O [Compound 49] | > 1000 nM | 8.40
36 | CC(C)CCCCC(=O)CCCCCC/C=C/[C@H](C(=O)N[C@@H](Cc1ccc(OCCC(C)C)cc1)C(=O)O)[C@](O)(CC(=O)O)C(=O)O [Compound 50] | > 1000 nM | 8.40
37 | CCCCCCC(=O)CCCCCC/C=C/[C@H](C(=O)N[C@@H](Cc1ccc(OCCC(C)C)cc1)C(=O)O)[C@](O)(CC(=O)O)C(=O)O [Compound 51] | > 1000 nM | 7.77
